# Laboratory results reported in ChEMBL document CHEMBL1201862, “PubChem BioAssay data set” (2004).
# Activity calls are given as the source filed them.
# Experiments:
# [1] = tested on: Streptococcus; test: Group A Streptococcus viability loss, dose response, counter-screen for streptokinase expression inhibitor project, luminescence, BacTiterGlo (AID 1915); format: functional, organism-based;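 also: potency for reduction of bacterial viability or growth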
# [2] = tested on: Streptococcus sp. 'group A'; test: growth inhibition of control SK(-) GAS strain, dose response, counter-screen for streptokinase expression inhibitor project, luminescence, kanamycin, BacTiterGlo, confirmation (AID 1900); format: functional, organism-based
# [3] = target: T1, Streptokinase A (Streptococcus pyogenes serotype M1, UniProt P10520); test: S. pyogenes streptokinase expression inhibitors, potency, dose response, plasminogen activation absorbance, OD405 (AID 1914); format: functional, Streptococcus pyogenes M1 GAS;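 also: secreted streptokinase activity via plasminogen activation per viability signal from cell pellet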
# T1 sequence (P10520 whole entry): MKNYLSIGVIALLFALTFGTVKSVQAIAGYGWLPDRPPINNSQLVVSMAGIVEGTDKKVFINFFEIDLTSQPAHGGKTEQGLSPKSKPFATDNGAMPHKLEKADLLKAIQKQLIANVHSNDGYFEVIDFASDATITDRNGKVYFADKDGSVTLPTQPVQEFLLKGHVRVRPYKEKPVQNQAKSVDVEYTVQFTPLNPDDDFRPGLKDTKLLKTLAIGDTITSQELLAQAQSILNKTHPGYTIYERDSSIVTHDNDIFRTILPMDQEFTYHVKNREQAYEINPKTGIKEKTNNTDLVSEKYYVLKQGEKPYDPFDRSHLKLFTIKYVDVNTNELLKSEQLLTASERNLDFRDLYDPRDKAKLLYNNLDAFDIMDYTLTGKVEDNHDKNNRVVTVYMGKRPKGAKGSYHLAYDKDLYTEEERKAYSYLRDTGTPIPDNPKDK
# [4] = target: T2, Apoptotic protease-activating factor 1 (Homo sapiens, UniProt O14727); format: functional
# T2 sequence (O14727 whole entry): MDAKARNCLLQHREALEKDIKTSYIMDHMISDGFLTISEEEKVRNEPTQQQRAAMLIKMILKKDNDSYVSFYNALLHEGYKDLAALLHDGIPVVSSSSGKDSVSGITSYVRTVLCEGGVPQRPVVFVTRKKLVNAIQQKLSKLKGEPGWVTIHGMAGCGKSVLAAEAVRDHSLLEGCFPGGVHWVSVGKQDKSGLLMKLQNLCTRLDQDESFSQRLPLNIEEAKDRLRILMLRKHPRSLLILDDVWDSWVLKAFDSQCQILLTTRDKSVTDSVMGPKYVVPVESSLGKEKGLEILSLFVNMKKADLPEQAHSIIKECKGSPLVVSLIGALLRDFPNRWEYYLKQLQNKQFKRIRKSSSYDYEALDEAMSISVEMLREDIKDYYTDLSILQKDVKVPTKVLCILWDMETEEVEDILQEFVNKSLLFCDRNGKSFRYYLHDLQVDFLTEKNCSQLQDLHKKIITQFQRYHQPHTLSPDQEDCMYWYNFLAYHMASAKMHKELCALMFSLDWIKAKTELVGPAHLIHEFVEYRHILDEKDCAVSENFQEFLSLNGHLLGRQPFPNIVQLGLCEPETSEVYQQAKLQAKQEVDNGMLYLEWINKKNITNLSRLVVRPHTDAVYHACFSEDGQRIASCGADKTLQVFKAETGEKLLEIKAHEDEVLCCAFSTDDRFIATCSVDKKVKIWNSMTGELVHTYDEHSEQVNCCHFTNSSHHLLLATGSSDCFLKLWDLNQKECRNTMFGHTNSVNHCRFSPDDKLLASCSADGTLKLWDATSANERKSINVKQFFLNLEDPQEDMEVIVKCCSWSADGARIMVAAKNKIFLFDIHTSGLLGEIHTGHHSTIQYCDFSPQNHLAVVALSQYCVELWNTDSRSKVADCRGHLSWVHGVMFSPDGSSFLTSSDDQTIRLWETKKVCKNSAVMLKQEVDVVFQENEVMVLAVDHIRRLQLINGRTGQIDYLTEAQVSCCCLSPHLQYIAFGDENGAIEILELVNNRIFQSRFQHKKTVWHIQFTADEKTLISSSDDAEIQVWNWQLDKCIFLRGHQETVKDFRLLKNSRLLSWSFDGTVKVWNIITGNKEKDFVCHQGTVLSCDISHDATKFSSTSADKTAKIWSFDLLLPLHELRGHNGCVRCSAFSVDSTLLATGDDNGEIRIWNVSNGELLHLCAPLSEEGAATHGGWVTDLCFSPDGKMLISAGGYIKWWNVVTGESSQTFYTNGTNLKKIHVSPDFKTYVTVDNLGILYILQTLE
# [5] = target: Nonstructural protein 1 (Influenza A virus, UniProt Q194T2); format: functional, Influenza A virus (A/California/07/2009(H1N1))
# [6] = target: T3, Methionyl-tRNA synthetase, putative (Trypanosoma brucei brucei, UniProt Q38C91); format: functional, Trypanosoma brucei brucei strain 927/4 GUTat10.1
# T3 sequence (Q38C91 whole entry): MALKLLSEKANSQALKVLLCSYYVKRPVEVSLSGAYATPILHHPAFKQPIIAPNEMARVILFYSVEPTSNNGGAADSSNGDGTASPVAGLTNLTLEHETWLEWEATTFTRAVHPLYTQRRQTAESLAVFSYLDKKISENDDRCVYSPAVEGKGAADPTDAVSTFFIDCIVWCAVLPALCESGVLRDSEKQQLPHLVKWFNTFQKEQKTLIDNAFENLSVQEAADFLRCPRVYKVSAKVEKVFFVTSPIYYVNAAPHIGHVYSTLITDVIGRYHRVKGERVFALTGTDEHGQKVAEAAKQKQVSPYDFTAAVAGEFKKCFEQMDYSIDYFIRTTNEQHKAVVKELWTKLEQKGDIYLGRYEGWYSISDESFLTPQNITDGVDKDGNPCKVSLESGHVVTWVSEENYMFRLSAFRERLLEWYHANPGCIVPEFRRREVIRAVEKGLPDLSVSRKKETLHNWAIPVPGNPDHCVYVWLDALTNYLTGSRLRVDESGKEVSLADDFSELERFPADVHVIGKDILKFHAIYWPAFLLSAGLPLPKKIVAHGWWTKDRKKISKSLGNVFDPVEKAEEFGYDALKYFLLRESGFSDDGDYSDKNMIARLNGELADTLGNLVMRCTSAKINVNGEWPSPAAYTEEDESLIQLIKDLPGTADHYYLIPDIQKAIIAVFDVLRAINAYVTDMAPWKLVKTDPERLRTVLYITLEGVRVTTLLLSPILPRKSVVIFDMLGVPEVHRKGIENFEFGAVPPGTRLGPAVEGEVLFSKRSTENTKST
# [7] = target: T4, Calpain-2 catalytic subunit (Sus scrofa, UniProt P43367); test: pig calpain II inhibitor potency, dose response, biochemical, fluorogenic peptide substrate (AID 1420); format: functional
# T4 sequence (P43367 whole entry): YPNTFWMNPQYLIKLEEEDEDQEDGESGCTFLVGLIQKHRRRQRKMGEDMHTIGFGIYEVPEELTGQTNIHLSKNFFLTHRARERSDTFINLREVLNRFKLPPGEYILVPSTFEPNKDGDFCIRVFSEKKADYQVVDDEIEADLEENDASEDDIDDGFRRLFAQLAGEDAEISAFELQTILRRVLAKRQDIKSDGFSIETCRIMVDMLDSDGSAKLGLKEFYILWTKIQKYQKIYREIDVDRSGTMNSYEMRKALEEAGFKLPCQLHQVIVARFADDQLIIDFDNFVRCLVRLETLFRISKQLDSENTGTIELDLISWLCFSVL
# [8] = Counterscreen for inhibitors of Trypanosoma brucei methionyl tRNA synthetase (MetRS): Luminescence-based cell-based high throughput dose response assay to identify compounds that are cytotoxic to Jurkat human T lymphocyte cells.; format: functional
# [9] = target: T3, Methionyl-tRNA synthetase, putative; format: functional, Trypanosoma brucei brucei strain 927/4 GUTat10.1; remark: listed apart in the source
# [10] = THP-1 cell cytotoxicity, dose response, cytotoxicity control for Vif-APOBEC3G degradation inhibitor project, THP-1 cells (AID 1117359); format: functional; settings: Human immunodeficiency virus 1, THP-1
# [11] = target: T5, Polyadenylate-binding protein 1 (Homo sapiens, UniProt P11940); test: PABP1 MLLE–PAM2 interaction inhibitors, dose response, miRNA deadenylation inhibitor project, biochemical, fluorescence polarization, Cy5-PAM2 peptide, secondary (AID 602260); format: functional; settings: read-out: IC50_Mean
# [12] = target: T5, Polyadenylate-binding protein 1; test: PABP1 MLLE–PAM2 binding inhibitor potency, dose response, biochemical, fluorescence polarization, FITC-PAM2 peptide (AID 602259); format: functional; settings: read-out: IC50_Mean
# [13] = target: Induced myeloid leukemia cell differentiation protein Mcl-1 (Homo sapiens, UniProt Q07820); format: functional
# [14] = target: T6, DNA repair and recombination protein RAD54-like (Homo sapiens, UniProt Q92698); test: inhibitors of human RAD54 branch migration, confirmation, biochemical, fluorescence, cherry-picked samples, dose series (AID 651657); format: functional
# T6 sequence (Q92698 whole entry): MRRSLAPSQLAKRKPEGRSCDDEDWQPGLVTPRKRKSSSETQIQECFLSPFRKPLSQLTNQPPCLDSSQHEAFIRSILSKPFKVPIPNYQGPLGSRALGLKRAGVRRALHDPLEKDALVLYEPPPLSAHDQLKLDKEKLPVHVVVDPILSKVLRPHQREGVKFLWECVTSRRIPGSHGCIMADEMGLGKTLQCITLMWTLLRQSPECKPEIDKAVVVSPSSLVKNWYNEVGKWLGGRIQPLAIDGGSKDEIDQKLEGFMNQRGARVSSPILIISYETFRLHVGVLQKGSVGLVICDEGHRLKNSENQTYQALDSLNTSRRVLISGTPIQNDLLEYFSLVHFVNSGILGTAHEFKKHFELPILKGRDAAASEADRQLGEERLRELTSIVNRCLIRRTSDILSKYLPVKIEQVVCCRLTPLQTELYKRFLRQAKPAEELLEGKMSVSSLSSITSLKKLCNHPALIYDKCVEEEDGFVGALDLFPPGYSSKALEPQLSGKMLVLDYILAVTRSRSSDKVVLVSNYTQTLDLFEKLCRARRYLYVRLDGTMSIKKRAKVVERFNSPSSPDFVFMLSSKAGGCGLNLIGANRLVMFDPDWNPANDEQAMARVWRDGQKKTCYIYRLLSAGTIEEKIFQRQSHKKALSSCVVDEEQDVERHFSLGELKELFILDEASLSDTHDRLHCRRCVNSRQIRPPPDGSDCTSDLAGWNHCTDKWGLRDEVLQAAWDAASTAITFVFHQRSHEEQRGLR
# [15] = target: T7, DNA repair protein RAD52 homolog (Homo sapiens, UniProt P43351); format: functional, biochemical
# T7 sequence (P43351 whole entry): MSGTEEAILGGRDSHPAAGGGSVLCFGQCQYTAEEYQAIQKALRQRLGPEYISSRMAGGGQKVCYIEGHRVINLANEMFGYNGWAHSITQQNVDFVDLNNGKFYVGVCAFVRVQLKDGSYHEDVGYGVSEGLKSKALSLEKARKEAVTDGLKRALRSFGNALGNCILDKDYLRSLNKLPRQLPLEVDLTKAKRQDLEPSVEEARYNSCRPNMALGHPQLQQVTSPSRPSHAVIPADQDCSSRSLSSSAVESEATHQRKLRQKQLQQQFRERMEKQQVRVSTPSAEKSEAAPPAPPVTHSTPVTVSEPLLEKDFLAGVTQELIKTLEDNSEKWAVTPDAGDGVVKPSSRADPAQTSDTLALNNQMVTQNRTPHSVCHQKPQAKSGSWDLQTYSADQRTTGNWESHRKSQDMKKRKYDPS
# [16] = control 3'UTR Renilla luciferase suppression, dose response, counter-screen for Shn3 inhibitor project, cell-based, Clone20-Shn3RL, cherry-picked (AID 624133); format: functional
# [17] = HepG2 cell cytotoxicity, dose response, cytotoxicity control for Shn3 inhibitor project, CellTiter-Glo, cherry-picked (AID 624134); format: functional, cell-based
# [18] = Shn3 3'UTR reporter inhibitors, dose response, cell-based, Clone20 osteoblasts, firefly luciferase, cherry-picked (AID 624132); format: functional;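 also: firefly luciferase luminescence from reporter carrying the Shn3 3'UTR in osteoblasts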
# [19] = target: DNA dC->dU-editing enzyme APOBEC-3G (Homo sapiens, UniProt Q9HC16); test: APOBEC3G deaminase inhibitors, SAR follow-up, biochemical, fluorescence, single-stranded DNA substrate (AID 602136); format: functional; settings: read-out: IC50_Mean
# [20] = target: Cytochrome P450 2C9 (Homo sapiens, UniProt P11712)
# [21] = target: DNA dC->dU-editing enzyme APOBEC-3A (Homo sapiens, UniProt P31941); test: SAR analysis of small molecule inhibitors of APOBEC3A DNA Deaminase via a fluorescence-based single-stranded DNA deaminase assay.; format: functional; settings: read-out: IC50_Mean
# Chain of DNA dC->dU-editing enzyme APOBEC-3A (P31941 whole entry): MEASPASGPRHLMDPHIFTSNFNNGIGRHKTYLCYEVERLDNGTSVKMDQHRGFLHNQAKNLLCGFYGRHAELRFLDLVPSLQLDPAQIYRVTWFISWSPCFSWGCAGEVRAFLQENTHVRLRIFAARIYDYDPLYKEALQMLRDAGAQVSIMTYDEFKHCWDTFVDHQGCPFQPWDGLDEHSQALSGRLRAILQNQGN
# T5 sequence (P11940 whole entry): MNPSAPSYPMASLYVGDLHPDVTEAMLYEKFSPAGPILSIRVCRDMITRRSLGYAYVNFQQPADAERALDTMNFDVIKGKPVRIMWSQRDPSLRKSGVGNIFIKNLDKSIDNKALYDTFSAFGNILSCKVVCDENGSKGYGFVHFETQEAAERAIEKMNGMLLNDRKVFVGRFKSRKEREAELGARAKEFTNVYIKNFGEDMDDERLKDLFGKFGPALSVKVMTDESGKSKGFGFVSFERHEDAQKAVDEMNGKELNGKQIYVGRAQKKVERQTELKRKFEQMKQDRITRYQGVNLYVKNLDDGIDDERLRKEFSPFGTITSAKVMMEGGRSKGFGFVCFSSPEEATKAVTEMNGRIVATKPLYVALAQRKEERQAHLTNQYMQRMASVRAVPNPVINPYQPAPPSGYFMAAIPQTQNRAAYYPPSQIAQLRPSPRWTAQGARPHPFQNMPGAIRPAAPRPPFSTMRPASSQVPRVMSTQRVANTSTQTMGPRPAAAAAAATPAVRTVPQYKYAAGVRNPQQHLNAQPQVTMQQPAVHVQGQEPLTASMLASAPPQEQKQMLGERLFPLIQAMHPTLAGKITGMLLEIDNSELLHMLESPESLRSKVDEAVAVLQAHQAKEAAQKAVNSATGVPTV
# Chain of DNA dC->dU-editing enzyme APOBEC-3G (Q9HC16 whole entry): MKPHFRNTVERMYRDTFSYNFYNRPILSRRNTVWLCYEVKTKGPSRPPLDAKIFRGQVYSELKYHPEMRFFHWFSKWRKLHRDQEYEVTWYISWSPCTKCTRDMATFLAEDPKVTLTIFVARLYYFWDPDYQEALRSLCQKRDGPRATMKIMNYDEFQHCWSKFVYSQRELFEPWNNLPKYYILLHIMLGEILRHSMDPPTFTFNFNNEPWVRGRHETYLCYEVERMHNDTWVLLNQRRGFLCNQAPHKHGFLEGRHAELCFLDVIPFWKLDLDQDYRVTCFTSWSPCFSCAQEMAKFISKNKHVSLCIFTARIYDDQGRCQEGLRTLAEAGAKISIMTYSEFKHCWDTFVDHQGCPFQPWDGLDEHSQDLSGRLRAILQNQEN
# Chain of Nonstructural protein 1 (Q194T2 whole entry): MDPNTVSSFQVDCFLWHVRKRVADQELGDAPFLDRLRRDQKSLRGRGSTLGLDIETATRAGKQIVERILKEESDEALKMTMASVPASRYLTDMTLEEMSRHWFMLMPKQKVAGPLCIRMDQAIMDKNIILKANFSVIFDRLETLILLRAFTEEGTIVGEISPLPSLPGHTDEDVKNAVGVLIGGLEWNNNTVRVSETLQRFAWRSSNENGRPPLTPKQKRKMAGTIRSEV
# Chain of Induced myeloid leukemia cell differentiation protein Mcl-1 (Q07820 whole entry): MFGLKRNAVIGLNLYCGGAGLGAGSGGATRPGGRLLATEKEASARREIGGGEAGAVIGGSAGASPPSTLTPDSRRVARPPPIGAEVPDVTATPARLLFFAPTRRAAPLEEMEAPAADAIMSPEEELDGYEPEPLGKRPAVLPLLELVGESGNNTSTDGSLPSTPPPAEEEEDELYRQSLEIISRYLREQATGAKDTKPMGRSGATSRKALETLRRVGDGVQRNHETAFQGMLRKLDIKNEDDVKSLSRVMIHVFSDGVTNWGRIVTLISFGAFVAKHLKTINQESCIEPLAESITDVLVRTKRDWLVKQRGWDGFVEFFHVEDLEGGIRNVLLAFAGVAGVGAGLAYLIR
# Chain of Cytochrome P450 2C9 (P11712 whole entry): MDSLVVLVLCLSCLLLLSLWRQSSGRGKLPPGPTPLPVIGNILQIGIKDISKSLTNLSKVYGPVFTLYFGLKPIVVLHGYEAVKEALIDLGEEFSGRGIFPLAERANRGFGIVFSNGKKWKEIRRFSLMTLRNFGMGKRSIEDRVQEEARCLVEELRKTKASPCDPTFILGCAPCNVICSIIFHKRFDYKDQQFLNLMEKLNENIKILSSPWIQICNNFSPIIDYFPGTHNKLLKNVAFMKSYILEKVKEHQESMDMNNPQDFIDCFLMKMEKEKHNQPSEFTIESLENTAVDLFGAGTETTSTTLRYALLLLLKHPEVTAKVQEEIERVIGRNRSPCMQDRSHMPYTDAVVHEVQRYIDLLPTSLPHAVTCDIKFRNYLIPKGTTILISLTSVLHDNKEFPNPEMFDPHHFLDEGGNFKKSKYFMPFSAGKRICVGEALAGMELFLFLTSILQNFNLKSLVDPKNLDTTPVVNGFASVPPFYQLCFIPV
smiles,measurement,setting,value
C[C@@]12CCC=C[C@H]1[C@H](c1ccc3ccccc3c1Br)N(Cc1ccccc1)C2=O,EC50,[1],5.78 µM (active)
same,EC50,[2],4.22 µM (active)
same,EC50,[3],5.76 µM (active)
same,IC50,[4],59.3 µM (active)
CCOC(=O)C1CCCN(C2=C(NS(=O)(=O)c3ccc(Br)cc3)C(=O)c3ccccc3C2=O)C1 (stereo not given),IC50,[5],15.9 µM (active)
same,IC50,[4],19.5 µM (active)
O=C(NCc1cccs1)c1cccc(Nc2nc3cc(Br)ccc3[nH]2)c1,IC50,[6],38.7 µM (inactive)
same,IC50,[7],11.1 µM (not active)
same,IC50,[8],83.1 µM (inactive)
same,IC50,[9],31.3 µM (inactive)
COc1ccc2c(c1)c1ccc3c(c1n2C)C(=O)C=CC3=O,CC50,[10],18 µM (active)
same,IC50,[11],> 66 µM (inactive)
same,IC50,[12],58.5 µM (inactive)
same,IC50,[13],0.946 µM (active)
same,IC50,[4],19.3 µM (active)
Cc1cccn2c(=O)c3cc(C(=O)NCCN4CCOCC4)c(=N)n(CCN4CCOCC4)c3nc12,AC50,[14],15.9 µM (active)
same,AC50,[15],13.7 µM (active)
O=C(c1ccc(Cl)cc1)C1CCCN(Cc2cccc3ncccc23)C1 (stereo not given),AC50,[16],7.83 µM (active)
same,AC50,[17],> 70 µM (inactive)
same,AC50,[18],4.52 µM (active)
COc1ccc(Nc2c3c(nc4ccc(C)cc24)CCC3)cc1,AC50,[14],84.4 µM (active)
S=C(NCc1cccs1)Nc1cc(Cl)cc(Cl)c1,EC50,[1],13.7 µM (active)
same,EC50,[2],5.49 µM (active)
same,IC50,[6],24.6 µM (inactive)
same,EC50,[3],> 150 µM (not active)
same,IC50,[8],34.5 µM (inactive)
same,IC50,[9],104 µM (inactive)
COc1cc(CNc2[nH]cnc3c4cc(C)ccc4nc2-3)cc(OC)c1,IC50,[6],2.32 µM (active)
same,IC50,[8],27.8 µM (inactive)
same,IC50,[9],1.46 µM (active)
C#CCSc1nnc(-c2cc3c(C(F)(F)F)nn(C)c3s2)n1C,IC50,[19],> 99 µM (inactive)
same,AC50,[20],inconclusive
same,IC50,[21],> 99 µM (inactive)
O=C(c1nn2c(C(F)(F)F)cc(-c3ccc(Cl)cc3)nc2c1Cl)N1CCCC1,IC50,[19],> 99 µM (inactive)
same,IC50,[21],> 99 µM (inactive)
